This passage reports IC50, inhibition and Papp results from patent publication US12454530B2, “Amido cyclohexane acid derivatives as LPA receptor inhibitors” (CHIESI FARMACEUTICI S.P.A., priority 2020, dated 2025).

pIC50: −log10 of the molar value.

The term pIC50 denotes the negative decadic logarithm of the IC50, by convention in mol/L. By inhibition is commonly meant how much of the control response was suppressed. High values mean strong suppression, low ones little suppression.

In series [1] the target is human recombinant LPA1 expressed in CHO cells (Homo sapiens (Human), UniProt Q92633). Kind of series: LPA1 antagonist FLIPR calcium assay in CHO-hLPA1 cells. It is filed as cell-based. The settings on record: range of activity; CHO-hLPA1, LPA EC80, Ca2+ mobilization; read-out: LPA1 IC50. As for the experimental part: The effectiveness of compounds of the present invention as LPA1 antagonists can be determined at the human recombinant LPA1 expressed in CHO cells, using a FLIPR assay in 384 well format.
human recombinant LPA1 expressed in CHO cells, sequence (Q92633 whole entry): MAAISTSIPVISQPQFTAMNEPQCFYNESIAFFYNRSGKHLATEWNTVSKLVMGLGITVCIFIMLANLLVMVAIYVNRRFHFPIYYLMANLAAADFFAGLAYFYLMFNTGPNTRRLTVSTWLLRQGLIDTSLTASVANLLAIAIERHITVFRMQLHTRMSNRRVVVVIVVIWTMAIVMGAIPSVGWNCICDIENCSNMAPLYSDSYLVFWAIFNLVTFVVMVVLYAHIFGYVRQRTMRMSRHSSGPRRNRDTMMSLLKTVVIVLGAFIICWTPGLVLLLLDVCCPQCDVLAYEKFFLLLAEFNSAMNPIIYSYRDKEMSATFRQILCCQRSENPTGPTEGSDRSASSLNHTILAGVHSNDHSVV
CHO-hLPA1 cell lines are cultured in a humidified incubator at 5% CO2 in DMEM/F-12 (1:1) MIXTURE with 2 mM Glutamax, supplemented with 10% of Foetal Bovine Serum, 1 mM Sodium Pyruvate, 11 mM Hepes and 1× Penicillin/Streptomycin. […] Serial dilutions (1:3 or 1:4, 11 points CRC) of compounds are performed in 100% DMSO at 200× the final concentration. […] The final concentration of DMSO in the assay will be 0.5% in each well. Medium is removed by aspiration and cells are then incubated with 30 μl of a loading solution containing 5 μM of the cytoplasmic Ca2+ indicator Cal-520 AM in Assay Buffer containing 2.5 mM probenecid for 30 min at 37° C. incubator (cell loading). The loaded cell plates are transferred into the FLIPR instrument and calcium responses are monitored during the on-line addition protocols. For testing of compounds, after the cell loading, 10 μl/well of 4× antagonists' solution was added onto the cells. After 30 min pre-incubation (at 37° C.), 10 μl/well of 5× concentrated LPA EC80 was added and Ca2+ mobilization responses was followed during the on-line addition protocol. Intracellular peak fluorescence values subtracted by baseline fluorescence are exported and analysed to determine IC50 values, respectively. The calcium response is expressed as percentage of the maximal inhibition of the EC80 agonist response.
The raw data (peak height expressed as relative fluorescence units) are normalized and transformed into “percent of inhibition”. Curve fitting and pIC50 (−LogIC50) estimations are carried out using a four-parameter logistic model using XLfit Software.

The next series concerns the target BSEP (Homo sapiens (Human), UniProt O95342). Kind of series: BSEP inhibition: biliary clearance of Taurocolic Acid in sandwich-cultured human hepatocytes. Type of series: in vitro ADME. The settings on record: sandwich-cultured cryopreserved human hepatocytes, probe Taurocolic Acid (TCA); 50 μM test compound, 10 μM TCA, human hepatocytes sandwich configuration. The protocol:
BSEP inhibition was evaluated using human hepatocytes cultured between two layer of collagen (sandwich configuration). In this culture condition, hepatocytes express relevant transporters including BSEP and retain the bile canalicular structure. An inhibition of the biliary clearance of Taurocolic Acid (TCA), a known BSEP substrate, was used to assess BSEP interaction.
BSEP inhibition was evaluated using cryopreserved human hepatocytes (Plateable Cryopreserved Human Hepatocytes, BIOIVT) cultured for 5 day between two layer of collagen (sandwich configuration). In this culture condition, hepatocytes express relevant transporters including BSEP and retain the bile canalicular structure.
On day 5 of culture, hepatic cells are ready for the assay and the biliary clearance of Taurocolic Acid (TCA), a known BSEP substrate, can be estimated in presence and in absence of compound of interest.
The sample solution was prepared dissolving test compound and TCA in DMSO and then diluted in the Assay Buffer: Hank's Balance Salt Solution (HBSS+) warmed at 37° C. before use, to give the 10 μM TCA working solution with and without 50 μM of test compound. Hepatocytes were incubated for 10 minutes with these working solutions allowing TCA to be excreted into bile. At the end of incubation, the working solution was aspirated, and the content of the bile was collected through the addition of HBSS Modified without Ca2+/Mg2+(HBSS−). The presence of Ca2+ in the buffer is required to maintain the integrity of the tight junctions, the diffusional barrier between the canalicular lumen and extracellular space. Instead, incubation of cells in Ca2+-free buffer disrupts the tight junctions and opens the bile canalicular structures, allowing the bile content to be released and collect for HPLC-MS/MS analysis.
The in vitro biliary clearance of TCA incubated with and without test compounds is calculated according to the following formula:
where • Acc. Bile=(TCA amount in HBSS (−) buffer samples (pmol/mg protein)*Volume of each samples (mL))/Protein content per well (mg) • AUC=Incubation time (min)*T0 Concentration. T0 concentration is the initial TCA concentration in the medium.
The inhibition of BSEP was calculated as percentage of inhibition of TCA biliary clearance in presence of compound of interest, according to the following formula: BSEP inhibition %=100−(TCA ClBil with test compound*100)
TCA ClBil without test compound.

Series [2] is described as follows: Permeability on Caco-2 cells monolayers. Type of series: in vitro ADME. The conditions noted are these: human, with Elacridar 10 µM (PgP inhibitor), Papp A>B with PgP inhibitor Elacridar, 10 μM compound, read-out: Passive Permeability. As for the experimental part: Even more advantageously, the compounds of formula (I) of the present invention are also endowed with a good permeability profile that, in its turn, can ensure a suitable bioavailability for an oral administration. The permeability was assessed in human Caco 2 cell line, an in vitro model that mimic human gastrointestinal barrier and so useful to predic oral absorption.
The permeability of the compounds of the present invention was evaluated performing the assay on Caco-2 cells monolayers (human colon adenocarcinoma immortalized cell) by measuring the transport of compound (absorption and secretion) in both directions: apical to basolateral direction (A>B) and basolateral to apical (B>A) with and without PgP inhibitor (Elacridar).
The cells, purched from ReadyCell in 96 well format (Cod. KRECE-CCR50), were cultured by the supplier for 21 day on transwell supports in DMEM 1 g/L glucose culture medium supplemented with Fetal Bovin Sierum (10%), Glutamine 200 mM (1%) and Penicillin 10000 U/ml-10 mg/ml Streptomycin (1%).
On day 21 of colture, cell monolayers integrity was verified by measuring the trans-epithelial electric resistance (TEER) using the EVOM equipment (Endohm, WPI, Germany) and studying the apparent permeability (Papp) of reference compounds (Sulpiride and Metoprolol). Furthermore, as a control, the Talinolol 10 uM (Pgp efflux substrate) with and without Elacridar in both directions was used.
The sample solution was prepared dissolving test compound in DMSO at the concentration of 10 mM and then diluted in the Assay Buffer (Hank's Balance Salt Solution) warmed at 37° C. before use, to give the 10 μM Compound working solution with and without 10 μM Elacridar. These working solutions were added to donor compartment (apical for A>B direction and basolateral for B>A direction) and Assay Buffer (Hank's Balance Salt Solution) to the receiver compartment (basolateral for A>B direction and apical for B>A direction). The plate was incubated at 37° C. for 120 min, all incubation were conducted in triplicates. At the end of incubation, samples from donor and receiver compartments were collected for HPLC-MS/MS analyses.
The permeability coefficients (Papp) in both directions: apical to basolateral (A>B) and basolateral to apical (B>A) with and without PgP inhibitor (Elacridar) was calculated in nm/sec, using the following equation:
[formula] • where: • Cr=measured concentration in the receiver well at the time t (expressed as IS ratio) • Vr=volume of the receiver well (ml) • t=time (sec) • A=membrane surface area (cm^2) • C0=initial donor concentration • Passive Papp is considered Papp A>B with PgP inhibitor Elacridar.
On the technique in general: Passage across Caco-2 layers is used to estimate intestinal permeability.

BSEP, sequence (O95342 whole entry): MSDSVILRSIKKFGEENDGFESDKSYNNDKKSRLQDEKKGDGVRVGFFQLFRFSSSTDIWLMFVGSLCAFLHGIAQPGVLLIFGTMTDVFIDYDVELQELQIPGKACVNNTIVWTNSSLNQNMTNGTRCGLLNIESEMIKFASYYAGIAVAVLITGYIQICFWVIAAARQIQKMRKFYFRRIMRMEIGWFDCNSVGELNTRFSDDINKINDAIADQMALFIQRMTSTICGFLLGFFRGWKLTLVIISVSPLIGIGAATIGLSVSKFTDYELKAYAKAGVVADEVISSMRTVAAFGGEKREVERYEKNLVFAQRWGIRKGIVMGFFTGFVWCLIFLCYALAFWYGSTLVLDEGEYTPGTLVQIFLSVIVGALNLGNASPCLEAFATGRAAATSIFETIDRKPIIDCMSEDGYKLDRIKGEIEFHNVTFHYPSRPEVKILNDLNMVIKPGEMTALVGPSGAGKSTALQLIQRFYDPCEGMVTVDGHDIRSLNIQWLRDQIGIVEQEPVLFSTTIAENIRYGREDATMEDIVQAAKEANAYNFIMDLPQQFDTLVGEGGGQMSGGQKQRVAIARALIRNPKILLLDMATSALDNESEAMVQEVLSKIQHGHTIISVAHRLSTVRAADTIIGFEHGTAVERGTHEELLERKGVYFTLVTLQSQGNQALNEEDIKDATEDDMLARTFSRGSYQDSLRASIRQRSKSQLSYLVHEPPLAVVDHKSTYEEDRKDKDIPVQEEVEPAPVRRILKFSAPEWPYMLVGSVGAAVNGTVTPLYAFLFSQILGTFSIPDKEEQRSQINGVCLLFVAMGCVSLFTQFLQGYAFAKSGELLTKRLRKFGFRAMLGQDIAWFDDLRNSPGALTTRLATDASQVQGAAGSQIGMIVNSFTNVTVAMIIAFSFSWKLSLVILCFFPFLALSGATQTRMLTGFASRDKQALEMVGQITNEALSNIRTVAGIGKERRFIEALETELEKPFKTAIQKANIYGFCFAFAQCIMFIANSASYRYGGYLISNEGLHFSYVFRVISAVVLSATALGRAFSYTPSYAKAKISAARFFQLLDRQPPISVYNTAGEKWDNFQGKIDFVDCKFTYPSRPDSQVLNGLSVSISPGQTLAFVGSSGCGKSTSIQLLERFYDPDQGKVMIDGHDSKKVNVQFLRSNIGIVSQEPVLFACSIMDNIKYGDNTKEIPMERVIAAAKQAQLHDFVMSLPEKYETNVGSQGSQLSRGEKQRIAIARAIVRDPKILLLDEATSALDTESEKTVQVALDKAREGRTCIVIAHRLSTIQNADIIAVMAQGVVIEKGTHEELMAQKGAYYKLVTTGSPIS

On to `Cc1nc(-c2onc(C)c2NC(=O)O[C@H](C)C2CCCC2)ccc1NC(=O)[C@H]1CCCC[C@@H]1C(=O)O` [Example 26, (1S,2S)-2-((6-(4-((((R)-1-cyclopentylethoxy)carbonyl)amino)-3-methylisoxazol-5-y1)-2-methylpyridin-3-yl)carbamoy1)cyclohexane-1-carboxylic acid], for which, in series [1], the negative logarithm of the IC50 (pIC50) was above 7.30. The compound further registered an inhibition at 10 min, 50 μM against BSEP of at most 50%. The Papp at 120 min, 10 µM in series [2] was at least 15 nm/s.
Take `Cc1nc(-c2onc(C)c2NC(=O)O[C@H](C)c2ccccc2Cl)ccc1NC(=O)[C@@H]1CCCC[C@H]1C(=O)O` [Example 12, (1R,2R)-2-((6-(4-((((R)-1-(2-chlorophenyl)ethoxy)carbonyl)amino)-3-methylisoxazol-5-yl)-2-methylpyridin-3-yl)carbamoyl)cyclohexane-1-carboxylic acid]: at BSEP, the inhibition at 10 min, 50 μM was at most 50%. Further, the Papp at 120 min, 10 µM in series [2] is at least 15 nm/s.
Take `Cc1nc(-c2onc(C)c2NC(=O)O[C@H](C)c2ccccc2Br)ccc1NC(=O)[C@H]1CCCC[C@@H]1C(=O)O` [Example 28, (1S,2S)-2-((6-(4-((((R)-1-(2-bromophenyl)ethoxy)carbonyl)amino)-3-methylisoxazol-5-yl)-2-methylpyridin-3-yl)carbamoyl)cyclohexane-1-carboxylic acid]: the pIC50 in series [1] is above 7.30. In series [2], the Papp at 120 min, 10 µM was at least 15 nm/s.
With `Cc1nc(-c2onc(C)c2NC(=O)O[C@H](C)c2ccccc2Cl)ccc1NC(=O)[C@H]1CCCC[C@@H]1C(=O)O` [Example 1, (1S,2S)-2-((6-(4-((((R)-1-(2-chlorophenyl)ethoxy)carbonyl)amino)-3-methylisoxazol-5-yl)-2-methylpyridin-3-yl)carbamoyl)cyclohexane-1-carboxylic acid], the inhibition at 10 min, 50 μM at BSEP is at most 50%. Also, in series [2], the Papp at 120 min, 10 µM was at least 15 nm/s.
In turn, `Cc1nc(-c2onc(C)c2NC(=O)O[C@H](C)c2ccccc2)ccc1NC(=O)C1CCCCC1C(=O)O` (stereo partly drawn) [Example 39, Cis-2-((2-methyl-6-(3-methyl-4-((((R)-1-phenylethoxy)carbonyl)amino)isoxazol-5-yl)pyridin-3-yl)carbamoyl)cyclohexane-1-carboxylic acid] displayed an inhibition at 10 min, 50 μM against BSEP of at most 50%. In addition, the Papp at 120 min, 10 µM in series [2] was at least 15 nm/s.
Compound `Cc1nc(-c2cnn(C)c2NC(=O)O[C@H](C)c2ccccc2Cl)ccc1NC(=O)[C@H]1CCCC[C@@H]1C(=O)O` (stereo in doubt) [Example 2, (1S,2S)-2-((6-(5-((((R)-1-(2-chlorophenyl)ethoxy)carbony1)amino)-1-methyl-1H-pyrazol-4-yl)-2-methylpyridin-3-y1)carbamoyl)cyclohexane-1-carboxylic acid] gave an inhibition at 10 min, 50 μM at BSEP of at most 50%. For the same compound, in series [2], the Papp at 120 min, 10 µM is at least 15 nm/s.
On the same counts, the results for `CCC[C@@H](C)OC(=O)Nc1c(C)noc1-c1ccc(NC(=O)[C@H]2CCCC[C@@H]2C(=O)O)c(C)n1` [Example 49, (1S,2S)-2-((2-methyl-6-(3-methyl-4-(((((R)-pentan-2-yl)oxy)carbonyl)amino)isoxazol-5-yl)pyridin-3-yl)carbamoyl)cyclohexane-1-carboxylic acid] are at most 50% and at least 15 nm/s.
In the case of `Cc1noc(-c2ccc(NC(=O)[C@H]3CCCC[C@@H]3C(=O)O)cc2)c1NC(=O)O[C@H](C)c1ccccc1Cl` [comparative Example A, (1S,2S)-2-({4-[3-methyl-4-({[(1R)-1-(2-chlorophenyl)ethoxy]carbonyl}amino)-1,2-oxazol-5-yl]phenyl}carbamoyl)cyclohexane-1-carboxylic acid, reference compound], the inhibition at 10 min, 50 μM against BSEP is above 70%. The Papp at 120 min, 10 µM in series [2] is below 15 nm/s.
In the same order, the values of `Cc1nc(-c2onc(C)c2NC(=O)O[C@H](C)c2ccccc2)ccc1NC(=O)[C@H]1CCCC[C@@H]1C(=O)O` [Example 27, (1S,2S)-2-((2-methyl-6-(3-methyl-4-((((R)-1-phenylethoxy)carbonyl)amino)isoxazol-5-yl)pyridin-3-yl)carbamoy1)cyclohexane-1-carboxylic acid] are at most 50% and at least 15 nm/s.
On the same counts, the results for `Cc1nc(-c2onc(C)c2NC(=O)O[C@H](C)c2ccccc2Cl)ccc1NC(=O)C1CCCCC1C(=O)O` (single isomer, unassigned) [Example 13] are at most 50% and at least 15 nm/s.
On the same counts, the results for `Cc1ccccc1[C@@H](C)OC(=O)Nc1c(C)noc1-c1ccc(NC(=O)[C@H]2CCCC[C@@H]2C(=O)O)c(C)n1` [Example 32, (1S,2S)-2-((2-methyl-6-(3-methyl-4-((((R)-1-(o-toly1)ethoxy)carbonyl)amino)isoxazol-5-yl)pyridin-3-yl)carbamoyl)cyclohexane-1-carboxylic acid] are at most 50% and at least 15 nm/s.
Take `Cc1noc(-c2ccc(NC(=O)[C@H]3CCCC[C@@H]3C(=O)O)cn2)c1NC(=O)O[C@H](C)c1ccccc1Cl` [Example 16, (1S,2S)-2-((6-(4-((((R)-1-(2-chlorophenyl)ethoxy)carbonyl)amino)-3-methylisoxazol-5-yl)pyridin-3-yl)carbamoyl)cyclohexane-1-carboxylic acid]: at BSEP, the inhibition at 10 min, 50 μM is at most 50%. The Papp at 120 min, 10 µM in series [2] was at least 15 nm/s.
